In one experiment the target is thrombin (Homo sapiens (Human), UniProt P00734). As to the kind of experiment: Determination of the thrombin-inhibitory activity in plasma samples (ecarin, fluorogenic thrombin substrate). The conditions noted are these: thrombin inhibition in citrate plasma (Octapharma), ecarin-stimulated. It is filed as biochemical. The method, then:
a.5) Determination of the Thrombin-Inhibitory Activity of the Potential Inhibitors in Plasma Samples
Various concentrations of the substances to be tested are dissolved in dimethyl sulphoxide and diluted with water. In white 96-well plates having a flat bottom, 20 μl of substance dilution are mixed with 20 μl of ecarin solution (ecarin reagent, from Sigma E-0504, final concentration 20 mU per batch) in Ca buffer (200 mM Hepes+560 mM sodium chloride+10 mM calcium chloride+0.4% PEG) or with 20 μl of Ca buffer (as unstimulated control). Furthermore, 20 μl of fluorogenic thrombin substrate (from Bachem I-1120, final concentration 50 μmol/l) and 20 μl of citrate plasma (from Octapharma) are added and homogenized thoroughly. The plate is measured in a SpectraFluorplus Reader using an excitation filter of 360 nm and an emission filter of 465 nm each minute over a period of 20 minutes. The IC50 value is determined when about 70% of the maximum signal is reached (about 12 min).

The next experiment has as its target factor Xa (Homo sapiens (Human), UniProt P00742). Kind of experiment: Determination of the factor Xa-inhibitory activity in plasma samples (RVV-activated factor X, chromogenic substrate). Type of experiment: biochemical. The conditions noted are these: factor Xa inhibition in citrate plasma (Octapharma), RVV-stimulated, ChromozymX substrate. The method, then: a.4) Determination of the Factor Xa-Inhibitory Activity of the Potential Inhibitors in Plasma Samples
To determine the inhibition of factor Xa in plasma samples, the factor X present in plasma is activated by a protease from rattlesnake toxin. The factor Xa activity or its inhibition by potential inhibitors is then measured by addition of a chromogenic substrate.
Various concentrations of the substances to be tested are dissolved in dimethyl sulphoxide and mixed with an aqueous refludan solution (10 μg/ml). In clear 96-well plates having a flat bottom, 30 μl of citrate plasma (Octapharma) are mixed with 10 μl of the substance dilution. Then, either 20 μl of a solution of a rattlesnake toxin (Russel viper venom (RVV); RVV reagent: Pentapharm 121-06, final concentration 0.6 mU) in an aqueous calcium chloride solution buffer (final concentration of calcium chloride 0.05 M) or 20 μl of the aqueous calcium chloride solution (final concentration of calcium chloride 0.05 M) without RVV reagent (as reference for an unstimulated sample) are added. After addition of 20 μl of ChromozymX substrate (final concentration 1.6 mmol/l, Bachem L-1565, diluted in water) the samples are measured in a SpectraFluor Reader using a measurement filter of 405 nm each minute over a period of 20 minutes. The IC50 value is determined when about 70% of the maximum signal is reached (about 12 min).

The IC50 is the concentration that inhibits the measured activity by half. Higher therefore signals weaker potency in that assay.

factor Xa, sequence (P00742 whole entry, looked up): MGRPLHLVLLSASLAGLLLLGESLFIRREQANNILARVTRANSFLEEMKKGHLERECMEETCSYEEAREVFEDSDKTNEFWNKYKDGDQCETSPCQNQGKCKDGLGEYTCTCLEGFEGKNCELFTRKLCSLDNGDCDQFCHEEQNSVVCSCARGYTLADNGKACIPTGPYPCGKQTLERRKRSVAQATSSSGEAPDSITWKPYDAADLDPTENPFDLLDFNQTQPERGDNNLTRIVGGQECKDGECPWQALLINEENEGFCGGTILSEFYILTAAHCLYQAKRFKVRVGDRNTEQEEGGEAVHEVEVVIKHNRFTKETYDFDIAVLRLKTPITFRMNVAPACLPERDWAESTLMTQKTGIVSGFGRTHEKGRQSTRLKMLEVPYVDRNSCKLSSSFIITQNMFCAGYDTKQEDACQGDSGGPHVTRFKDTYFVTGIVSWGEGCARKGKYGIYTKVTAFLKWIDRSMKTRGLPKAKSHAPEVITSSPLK
factor Xa, sequence (P00742 whole entry, looked up): as above

Take `Cc1cc(N2C[C@H](CNC(=O)c3ccc(Cl)s3)OC2=O)ccc1-n1cccc(CO)c1=O` [Example 2, 5-Chloro-N-[((5S)-3-{4-[3-(hydroxymethyl)-2-oxopyridin-1(2H)-yl]-3-methylphenyl}-2-oxo-1,3-oxazolidin-5-yl)methyl]thiophene-2-carboxamide]: the IC50 on thrombin amounted to 198 nM; against factor Xa, 21 nM.

Turning to `Cc1cc(N2C[C@H](CNC(=O)c3ccc(Cl)s3)OC2=O)ccc1-n1cccc(CCO)c1=O` [Example 6, 5-Chloro-N-[((5S)-3-{4-[3-(2-hydroxyethyl)-2-oxopyridin-1(2H)-yl]-3-methylphenyl}-2-oxo-1,3-oxazolidin-5-yl)methyl]thiophene-2-carboxamide], the IC50 against thrombin was found to be 186 nM; at factor Xa, 70 nM.

In the case of `COCc1cc(N2C[C@H](CNC(=O)c3ccc(Cl)s3)OC2=O)ccc1-n1cccc(CCO)c1=O` [Example 8], the concentration for half-maximal inhibition (IC50) was found to be 16 nM against thrombin and 167 nM at factor Xa.

`Cc1cc(N2C[C@H](CNC(=O)c3ccc(Cl)s3)OC2=O)ccc1-n1cccc(CCCO)c1=O` [Example 10, 5-Chloro-N-{[(5S)-3-{4-[3-(3-hydroxypropyl)-2-oxopyridin-1(2H)-yl]-3-methylphenyl}-2-oxo-1,3-oxazolidin-5-yl]methyl}thiophene-2-carboxamide]: the IC50 at thrombin stood at 74 nM; against factor Xa it was 40 nM.

The values are drawn from US8487111B2, “Substituted oxazolidinones and their use” (Bayer Intellectual Property GmbH, priority 2007, dated 2013).
